Test results reported in ChEMBL document CHEMBL6182864, “Design, synthesis and biological evaluation of 3-amino-6-(2-hydroxyphenyl)pyridazin-4-aryl derivatives as SMARCA2/4 degraders” (Eur J Med Chem, 2025).
pIC50: −log10 of the molar value. Active and inactive are the calls of the source. The calls are words filed in the database; no cut-off is given here.

How the values were obtained:
MOLM-13 [1] = experiment: Induction of apoptosis in human MOLM-13 cells assessed as viable cells at 1000 nM measured after 72 hrs by Annexin-V-FITC/propidium iodide staining based flow cytometry (reference value: 90.28%); type: functional; details: read-out: Activity
MV4-11 [2] = experiment: Induction of apoptosis in human MV4-11 cells assessed as viable cells at 1000 nM measured after 72 hrs by Annexin-V-FITC/propidium iodide staining based flow cytometry (reference value: 89.49%); type: functional; details: read-out: Activity
MOLM-13 [3] = experiment: Induction of apoptosis in human MOLM-13 cells assessed as late apoptotic cells at 300 nM measured after 72 hrs by Annexin-V-FITC/propidium iodide staining based flow cytometry (reference value: 3.87%); type: functional
[4] = Oral bioavailability in SPF Sprague-Dawley rat at 10 mg/kg by LC-MS/MS analysis; type: ADME, organism-based; details: in vivo
WSUDLCL2 = experiment: cells; details: Homo sapiens, WSUDLCL2, 72 h
MOLM-13 [5] = experiment: Induction of apoptosis in human MOLM-13 cells assessed as early apoptotic cells at 300 nM measured after 72 hrs by Annexin-V-FITC/propidium iodide staining based flow cytometry (reference value: 5.57%); type: functional
MOLM-13 [6] = experiment: Induction of apoptosis in human MOLM-13 cells assessed as early apoptotic cells at 100 nM measured after 72 hrs by Annexin-V-FITC/propidium iodide staining based flow cytometry (reference value: 5.57%); type: functional
MV4-11 [7] = experiment: Down regulation of PU.1 mRNA expression in human MV4-11 cells at 11.1 to 1000 nM measured after 24 hrs by RT-qPCR analysis; type: functional, cell-based; details: dose 11.1-1000 nM
MV4-11 [8] = experiment: Down regulation of MYC protein expression in human MV4-11 cells at 11.1 to 1000 nM measured after 24 hrs by Western blot analysis; type: functional, cell-based; details: dose 11.1-1000 nM
[9] = Cmax in SPF Sprague-Dawley rat at 10 mg/kg, po by LC-MS/MS analysis; type: ADME, organism-based; details: in vivo
MV4-11 [10] = experiment: Effect on SMARCA2 mRNA expression in human MV4-11 cells at 1000 nM measured after 24 hrs by RT-qPCR analysis; type: functional, cell-based
MV4-11 [11] = experiment: Down regulation of BCL-2 mRNA expression in human MV4-11 cells at 11.1 to 1000 nM measured after 24 hrs by RT-qPCR analysis; type: functional, cell-based; details: dose 11.1-1000 nM
[12] = Half life in SPF Sprague-Dawley rat at 10 mg/kg, po by LC-MS/MS analysis; type: ADME, organism-based; details: in vivo
MV4-11 [13] = experiment: Induction of apoptosis in human MV4-11 cells assessed as necrotic cells at 300 nM measured after 72 hrs by Annexin-V-FITC/propidium iodide staining based flow cytometry (reference value: 0.1%); type: functional
MV4-11 [14] = experiment: Induction of apoptosis in human MV4-11 cells assessed as early apoptotic cells at 100 nM measured after 72 hrs by Annexin-V-FITC/propidium iodide staining based flow cytometry (reference value: 9.32%); type: functional
MV4-11 [15] = experiment: Induction of apoptosis in human MV4-11 cells assessed as early apoptotic cells at 300 nM measured after 72 hrs by Annexin-V-FITC/propidium iodide staining based flow cytometry (reference value: 9.32%); type: functional
MV4-11 [16] = experiment: Down regulation of CDC25A mRNA expression in human MV4-11 cells at 100 to 1000 nM measured after 24 hrs by RT-qPCR analysis; type: functional, cell-based; details: dose 100-1000 nM
MV4-11 [17] = experiment: Down regulation of CD44 mRNA expression in human MV4-11 cells at 11.1 to 1000 nM measured after 24 hrs by RT-qPCR analysis; type: functional, cell-based; details: dose 11.1-1000 nM
MOLM-13 [18] = experiment: Induction of apoptosis in human MOLM-13 cells assessed as late apoptotic cells at 100 nM measured after 72 hrs by Annexin-V-FITC/propidium iodide staining based flow cytometry (reference value: 3.87%); type: functional
[19] = Cmax in SPF Sprague-Dawley rat at 1 mg/kg, iv by LC-MS/MS analysis; type: ADME, organism-based; details: in vivo
[20] = Down regulation of PBRM1 level in human MV4-11 cells at 100 nM measured after 6 hrs by mass spectrometric proteomic analysis relative to control; type: functional
MV4-11 [21] = experiment: Antiproliferative activity against human MV4-11 cells assessed as reduction in cell viability at 100 nM by MTT assay; type: functional, cell-based; details: time 3-7 day
MOLM-13 [22] = experiment: Induction of apoptosis in human MOLM-13 cells assessed as upregulation of PARP expression measured after 72 hrs by Western blot analysis; type: functional, cell-based; details: dose 100-1000 nM
MV4-11 [23] = experiment: Induction of apoptosis in human MV4-11 cells assessed as upregulation of PARP expression measured after 72 hrs by Western blot analysis; type: functional, cell-based; details: dose 100-1000 nM
MV4-11 [24] = experiment: Induction of apoptosis in human MV4-11 cells assessed as necrotic cells at 1000 nM measured after 72 hrs by Annexin-V-FITC/propidium iodide staining based flow cytometry (reference value: 0.1%); type: functional
[25] = MRT (0 to t) in SPF Sprague-Dawley rat at 10 mg/kg, po by LC-MS/MS analysis; type: ADME, organism-based; details: in vivo
SUD4 = experiment: cells; details: Homo sapiens, SU-DHL-4, 72 h
MOLM-13 [26] = experiment: Induction of apoptosis in human MOLM-13 cells assessed as necrotic cells at 1000 nM measured after 72 hrs by Annexin-V-FITC/propidium iodide staining based flow cytometry (reference value: 0.28%); type: functional
MV4-11 [27] = experiment: Induction of apoptosis in human MV4-11 cells assessed as late apoptotic cells at 300 nM measured after 72 hrs by Annexin-V-FITC/propidium iodide staining based flow cytometry (reference value: 1.09%); type: functional

- F [4]: 0.62%
- pIC50 (WSUDLCL2): 6.47
- Cmax [9]: 6.41 ng/mL
- half-life [12]: 2.1 h
- Cmax [19]: 1950 ng/mL
- MRT last [25]: 0.81 h
- pIC50 (SUD4): 7.06
Compound: Cc1ncsc1-c1ccc([C@H](C)NC(=O)[C@@H]2C[C@@H](O)CN2C(=O)[C@@H](NC(=O)C2(c3ccc(-c4cc(-c5ccccc5O)nnc4N)cc3)CC2)C(C)(C)C)cc1
- viability at 1 µM (MOLM-13 [1]): 25.7%
- viability at 1 µM (MV4-11 [2]): 22.1%
- Activity (MOLM-13 [3]): 14.39%
- Activity (MOLM-13 [5]): 58.21%
- Activity (MOLM-13 [6]): 38.84%
- Activity (MV4-11 [7]): Active
- Activity (MV4-11 [8]): Active
- Activity (MV4-11 [10]): Active; Little Effect Mrna Level Observed
- Activity (MV4-11 [11]): Active
- Activity (MV4-11 [13]): 1.1%
- Activity (MV4-11 [14]): 47.5%
- Activity (MV4-11 [15]): 54.11%
- Activity (MV4-11 [16]): Active
- Activity (MV4-11 [17]): Active
- Activity (MOLM-13 [18]): 6.91%
- Activity [20]: >=50%
- Activity (MV4-11 [21]): Time-dependent-effect; Complete Reduction Was Achieved On Day 7
- Activity (MOLM-13 [22]): Dose-dependent-effect
- Activity (MV4-11 [23]): Dose-dependent-effect
- Activity (MV4-11 [24]): 1.67%
- Activity (MOLM-13 [26]): 0.24%
- Activity (MV4-11 [27]): 20.37%
